Experimental data taken from patent publication US10391080B2, “Ketorolac for the treatment of cancer” (Cipla Limited, priority 2016, dated 2019).
Where two headings read alike, the source gives them in different places.

Key:
786-O = test: In vitro 3D assay, clonogenic assay (colony formation in semi-solid medium); assay type: cell-based; settings: Homo sapiens, 786-0, 3D colony formation, continuous exposure 8 to 13 days
Protocol: (§1) Ketorolac was characterized for its ability to inhibit anchorage independent growth and ex vivo colony formation of tumor cells in semi-solid medium. The compound was tested against 10 human tumor xenograft-derived cell suspensions or tumor cell lines of renal cancer.
(§2) Cell lines were routinely passaged one or twice weekly. […] The percentage of viable cells was determined in a Neubauer-hemocytometer using trypan blue exclusion.
(§3) Tumor xenografts (patient-derived, as well as cell line-derived xenografts) were passaged as subcutaneous xenografts in NMRI nu/nu mice. At a tumor volume of 400-1000 mm^3 tumor-bearing mice were sacrificed and tumors were collected under sterile conditions without delay according to the relevant Oncotest SOPs and the relevant animal welfare guidelines published by the FELASA and the GV-SOLAS. […] The percentage of viable cells was determined in a Neubauer-hemocytometer using trypan blue exclusion. Aliquots of the cells were frozen down, and stored in liquid nitrogen. On each day of an experiment, a frozen aliquot of tumor cells was thawed and used for preparation of assay plates.
(§4) The clonogenic assay was carried out in a 96 well plate format using ultra low attachment plates. […] Every plate included six untreated control wells and drug-treated groups in duplicate at 9 concentrations. […] At the time of maximum colony formation, counts were performed with an automatic image analysis system (Celllnsight NXT, Thermo Scientific). 48 hours prior to evaluation, vital colonies were stained with a sterile aqueous solution of 2-(4-iodophenyl)-3-(4-nitrophenyl)-5-phenyltetrazolium chloride (1 mg/ml, 100 μl/well).

A-498 cells = test: as above; assay type: cell-based; settings: Homo sapiens, A498, A-498, 3D colony formation, continuous exposure 8 to 13 days
Protocol: as §1, §2, §3, §4

ACHN = test: as above; assay type: cell-based; settings: Homo sapiens, 3D colony formation, continuous exposure 8 to 13 days
Protocol: as §1, §2, §3, §4

Caki-1 = test: as above; assay type: cell-based; settings: Homo sapiens, Caki-1, 3D colony formation, continuous exposure 8 to 13 days
Protocol: as §1, §2, §3, §4

RXF 1183L [1] = test: as above; assay type: cell-based; settings: Homo sapiens, 3D colony formation, continuous exposure 8 to 13 days
Protocol: as §1, §2, §3, §4

RXF 1220L = test: as above; assay type: cell-based; settings: Homo sapiens, 3D colony formation, continuous exposure 8 to 13 days
Protocol: as §1, §2, §3, §4

RXF 1781L = test: as above; assay type: cell-based; settings: Homo sapiens, 3D colony formation, continuous exposure 8 to 13 days
Protocol: as §1, §2, §3, §4

RXF 393L = test: as above; assay type: cell-based; settings: Homo sapiens, 3D colony formation, continuous exposure 8 to 13 days
Protocol: as §1, §2, §3, §4

RXF 486L = test: as above; assay type: cell-based; settings: Homo sapiens, 3D colony formation, continuous exposure 8 to 13 days
Protocol: as §1, §2, §3, §4

SN12C = test: as above; assay type: cell-based; settings: Homo sapiens, 3D colony formation, continuous exposure 8 to 13 days
Protocol: as §1, §2, §3, §4

[2] = test system: tumor cell lines of renal cancer; test: In vitro 3D combination study, clonogenic assay, both cell lines; assay type: cell-based; settings: Homo sapiens, A498; compound alone, colony formation in soft agar, range over RXF 1183L and RXF A-498; read-out: Relative IC50, single agent
Protocol: (§5) The objective of this study was to assess anti-tumor efficacy of ketorolac in combination with sunitinib in a 5×5 matrix combination format against tumor cell lines of renal cancer using a clonogenic assay with image analysis as read-out.
(§6) The clonogenic assay was carried out in a 96 well plate format using ultra low attachment plates. For each test cells were prepared as described above, and assay plates were prepared as follows: each test well contained a layer of semi-solid medium with tumor cells (50 μl), and a second layer of medium supernatant with or without test compounds (100 μl). The cell layer consisted of 3×10^3 to 1×10^4 tumor cells per well, which were seeded in 50 μl/well cell culture medium (IMDM, supplemented with 20% (v/v) fetal calf serum, 0.01% (w/v) gentamicin, and 0.4% (w/v) agar). The soft agar layer was immediately covered with 90 μl of the same culture medium without agar. After 24 h the test compounds were added after serial dilution in IMDM and transfer in cell culture medium, and left on the cells for the duration of the experiment (continuous exposure, 100 μL total drug overlay). Every plate included six untreated control wells and drug-treated groups in a layout as shown above. […] At the time of maximum colony formation, counts were performed with an automatic image analysis system (Celllnsight NXT, Thermo Scientific). […]

RXF 1183L [3] = test: In vitro 3D combination study, clonogenic assay, Bliss independence; assay type: cell-based, human; settings: RXF 1183L cells seeded in soft agar, concentration-dependent
Protocol: as §5, §6

RXF A-498 = test: as above; assay type: cell-based, human; settings: RXF A-498 cells seeded in soft agar, concentration-dependent
Protocol: as §5, §6

A498 cells = test: In vivo animal efficacy study, subcutaneous A498 tumor fragments; set-up: species or system female athymic nude mice
Protocol: 10 Healthy female athymic nude mice were recruited for the donor cell inoculation. Animals were subcutaneously injected at flank region with 10 million A498 cells suspended in 200 μl of media and matrigel. Animals were monitored for solid tumor growth. […] Tumors were fragmented in to ˜30 mg size. […] [table] The tumor sizes were measured weekly twice from the date of tumor appearance till the end of the experiment. Tumor size was measured by digital vernier caliper (MITUTOYO) by measuring length (L=longest axis) and width (W=shortest axis). Tumor Volume was calculated using the formula: […] Form the tumor volume data mean tumor volume and % tumor growth inhibition (% TGI) were calculated (SEM=standard error of mean).

[4] = Ketorolac 5 mg/kg p.o. q.d. × 21 (G3), day 1
[5] = Ketorolac 5 mg/kg p.o. q.d. × 21 (G3), day 6
[6] = Ketorolac 5 mg/kg p.o. q.d. × 21 (G3), day 9
[7] = Ketorolac 5 mg/kg p.o. q.d. × 21 (G3), day 13
[8] = Ketorolac 5 mg/kg p.o. q.d. × 21 (G3), day 16
[9] = Ketorolac 10 mg/kg p.o. q.d. × 21 (G4), day 1
[10] = Ketorolac 10 mg/kg p.o. q.d. × 21 (G4), day 6
[11] = Ketorolac 10 mg/kg p.o. q.d. × 21 (G4), day 9
[12] = Ketorolac 10 mg/kg p.o. q.d. × 21 (G4), day 13
[13] = Ketorolac 10 mg/kg p.o. q.d. × 21 (G4), day 16

O=C(c1ccccc1)c1ccc2n1CCC2C(=O)O (racemic) [Ketorolac, (±)-5-benzoyl-2,3-dihydro-1H-pyrrolizine-1-carboxylic acid]
IC50 (786-O; read-out: Absolute IC50): 3.84 mM
IC50 (786-O; read-out: Relative IC50): 4.2 mM
IC50 (A-498 cells; read-out: Absolute IC50): 0.279 mM
IC50 (A-498 cells; read-out: Relative IC50): 0.279 mM
IC50 (ACHN; read-out: Absolute IC50): 3.14 mM
IC50 (ACHN; read-out: Relative IC50): 3.25 mM
IC50 (Caki-1; read-out: Absolute IC50): 3.68 mM
IC50 (Caki-1; read-out: Relative IC50): 3.75 mM
IC50 (RXF 1183L [1]; read-out: Absolute IC50): 1.55 mM
IC50 (RXF 1183L [1]; read-out: Relative IC50): 1.49 mM
IC50 (RXF 1220L; read-out: Absolute IC50): 1.77 mM
IC50 (RXF 1220L; read-out: Relative IC50): 1.75 mM
IC50 (RXF 1781L; read-out: Absolute IC50): 1.9 mM
IC50 (RXF 1781L; read-out: Relative IC50): 2.03 mM
IC50 (RXF 393L; read-out: Absolute IC50): 2.83 mM
IC50 (RXF 393L; read-out: Relative IC50): 2.73 mM
IC50 (RXF 486L; read-out: Absolute IC50): 2.68 mM
IC50 (RXF 486L; read-out: Relative IC50): 2.61 mM
IC50 (SN12C; read-out: Absolute IC50): 2.59 mM
IC50 (SN12C; read-out: Relative IC50): 2.64 mM
IC50 [2]: 0.589 to 1.76 mM
Colony formation, single agent (RXF 1183L [3]): inhibited colony formation
Colony formation, single agent (RXF A-498): inhibited colony formation
Mean Tumor Volume (A498 cells; [4]): 145.65 mm^3
Tumor Growth Inhibition (% TGI) (A498 cells; [4]): 1.29%
Mean Tumor Volume (A498 cells; [5]): 174.13 mm^3
Tumor Growth Inhibition (% TGI) (A498 cells; [5]): 47.54%
Mean Tumor Volume (A498 cells; [6]): 297.42 mm^3
Tumor Growth Inhibition (% TGI) (A498 cells; [6]): 35.87%
Mean Tumor Volume (A498 cells; [7]): 460.01 mm^3
Tumor Growth Inhibition (% TGI) (A498 cells; [7]): 25.45%
Mean Tumor Volume (A498 cells; [8]): 559.69 mm^3
Tumor Growth Inhibition (% TGI) (A498 cells; [8]): 41.77%
Mean Tumor Volume (A498 cells; Ketorolac 5 mg/kg p.o. q.d. × 21 (G3), day 20): 626.62 mm^3
Mean Tumor Volume (A498 cells; [9]): 145.79 mm^3
Tumor Growth Inhibition (% TGI) (A498 cells; [9]): 1.20%
Mean Tumor Volume (A498 cells; [10]): 168.10 mm^3
Tumor Growth Inhibition (% TGI) (A498 cells; [10]): 49.36%
Mean Tumor Volume (A498 cells; [11]): 223.78 mm^3
Tumor Growth Inhibition (% TGI) (A498 cells; [11]): 51.75%
Mean Tumor Volume (A498 cells; [12]): 215.58 mm^3
Tumor Growth Inhibition (% TGI) (A498 cells; [12]): 65.06%
Mean Tumor Volume (A498 cells; [13]): 300.44 mm^3
Tumor Growth Inhibition (% TGI) (A498 cells; [13]): 68.75%
Mean Tumor Volume (A498 cells; Ketorolac 10 mg/kg p.o. q.d. × 21 (G4), day 20): 336.27 mm^3
